Experimental data published in the NIST ThermoML archive (doi:10.1016/j.jct.2015.04.034).

Assays:
[1] = 298.15 K; 101.33 kPa; Liquid; Vibrating tube method
[2] = excess molar enthalpy (molar enthalpy of mixing); xn = mol fraction of the nth substance listed; conditions: 101 kPa, Liquid, Flow calorimetry

CC1(C)C(=O)[C@]2(C)CC[C@H]1C2 [(-)-fenchone]
Conditions	mass density [kg/m3]
[1]	940.67

CC1(C)C(=O)[C@]2(C)CC[C@H]1C2 [(-)-fenchone] + CC(C)O
excess molar enthalpy [kcal/mol], [2]
Conditions	283.15 K	298.15 K	313.15 K	328.15 K
x1 = 0.049	0.0619	0.0681	0.0727	0.0739
x1 = 0.097	0.117	0.13	0.138	0.14
x1 = 0.192	0.204	0.222	0.235	0.241
x1 = 0.292	0.26	0.287	0.306	0.316
x1 = 0.392	0.292	0.326	0.349	0.362
x1 = 0.499	0.302	0.338	0.364	0.378
x1 = 0.598	0.294	0.328	0.354	0.367
x1 = 0.697	0.263	0.294	0.316	0.326
x1 = 0.792	0.212	0.234	0.251	0.257
x1 = 0.899	0.116	0.13	0.141	0.144
x1 = 0.947	0.066	0.0743	0.0796	0.0817

CC1(C)C(=O)[C@]2(C)CC[C@H]1C2 [(-)-fenchone] + CCCO
excess molar enthalpy [kcal/mol], [2]
Conditions	283.15 K	298.15 K	313.15 K	328.15 K
x1 = 0.049	0.0459	0.0526	0.0578	0.0612
x1 = 0.098	0.0875	0.1	0.11	0.117
x1 = 0.193	0.154	0.175	0.191	0.204
x1 = 0.292	0.2	0.228	0.251	0.269
x1 = 0.397	0.232	0.267	0.293	0.315
x1 = 0.493	0.243	0.28	0.309	0.331
x1 = 0.592	0.239	0.277	0.305	0.326
x1 = 0.691	0.218	0.251	0.275	0.293
x1 = 0.805	0.167	0.19	0.206	0.217
x1 = 0.897	0.0975	0.114	0.125	0.131
x1 = 0.951	0.05	0.0574	0.0626	0.0657

CCCO [propan-1-ol]
Conditions	mass density [kg/m3]
[1]	799.56

CC(C)O [propan-2-ol]
Conditions	mass density [kg/m3]
[1]	781.2
